Assays:
mice [1] = assay: Food intake in 24-h food-deprived mice; assay type: in vivo; conditions: ACEA 1 mg/kg i.p.
Method: For food intake experiments, mice were food-deprived for 24 h before being submitted to an i.p. injection of ACEA (1 mg·kg^−1). […] Cumulative food intake was measured every hour over a period of 3 h from refeeding.

mice [2] = assay: Body (rectal) temperature measurement; assay type: in vivo
Method: Mice rectal temperature was assessed using a VT4810 controller (Vertex Technology Corp., New Taipei City, Taiwan) adapted with a mouse rectal probe. In the first experiment, the impact of anandamide (10 mg·kg^−1) on body temperature was recorded during 30 min on animals injected either 20 min earlier with vehicle or JM-00266 (20 mg·kg^−1).

Brain/plasma ratio (B/P) = assay type: in vivo; conditions: mice
Method: (§1) Tissues were homogenized with a mini-bead beater (BioSpec Products, Bartlesville, OK) in 10 volumes of acetonitrile containing 15 ng of internal standard, JM-00252. Blood samples were centrifuged at 6500× g during 10 min 4 °C and 5 µL of plasma were diluted in 10 volumes of acetonitrile containing 15 ng of internal standard. Then, each homogenate of tissue or plasma was centrifuged for 10 min at 6500× g and the supernatant was recovered and carefully transferred to new glass tubes. Finally, the extract was injected into a 1200 LC system coupled to a 6460-QqQ MS/MS system equipped with a JetStream ESI source (Agilent technologies, Les Ulis, France). Separation was achieved on a Poroshell 120 EC-C8 2.1 mm × 100 mm, 2.7 µm column (Agilent technologies) at a flow rate of 0.4 mL.min^−1, 55 °C, with a linear gradient of (solvent A) water containing 1 mM ammonium formate and 0.2% formic acid and (solvent B) methanol containing 1 mM ammonium formate and 0.2% formic acid and as follows: 50% B for 1 min, up to 100% B in 4 min, and then maintained at 100% for 2 min. The acquisition was performed in positive Single Reaction Monitoring (SRM) mode (source temperature: 300 °C, nebulizer gas flow rate was 10 L·min^−1, 15 psi, sheath gas flow 7 L·min^−1, temperature 225 °C, capillary 4000 V, nozzle 1500 V). […] Results are expressed as ng·g^−1 for tissues and ng·mL^−1 for plasma.
Brain/plasma ratios (B/P) were determined as previously described. […] Blood and brain were collected and directly extracted for further analysis by LC-MS/MS.

[3] = Plasma kinetic profile after i.p., oral or intravenous administration; assay type: in vivo, mice; conditions: mice, 10 mg·kg−1, i.p. or oral
Method: (§2) At 1, 2, 4 and 8 h post-administration, animals were killed by cervical dislocation and blood was collected from the vena cava into tubes containing heparin and centrifuged immediately at 6500× g for 10 min at 4 °C. For determination of tissue distribution, brain, liver and adipose tissue were collected 4 h post-gavage. Plasma and tissue samples were directly extracted for further analysis by Liquid chromatography coupled to tandem mass spectrometry (LC-MS/MS).
as §1

[4] = Tissue distribution 4 h after gavage; assay type: in vivo; conditions: mice, 4 h after gavage in oil, 10 mg·kg−1
Method: as §2, §1

mice [5] = assay: Open field test (anxiety-related behavior); assay type: in vivo; conditions: 10 mg·kg−1 i.p. 30 min before, 10 min exploration
Method: Anxiety-related behavior was assessed using the open field test (OF; Mouse Open Field Arena ENV-510; Med Associates Inc., Fairfax, VT, USA). […] The two regions were defined by grid lines that divided each box into the center and periphery, with each of the four lines being 11 cm from each wall.

mice [6] = assay: Gastro-intestinal transit (charcoal marker); assay type: in vivo; conditions: anandamide 10 mg·kg−1
Method: Short-term effects of JM-00266 on gastro-intestinal transit were tested as an indicator of peripheral CB1R activity. Transit was measured by administering a non-absorbed marker (10% charcoal suspension in 5% gum arabic) as previously described.

SMILES: CCCCC/C=C\C/C=C\C/C=C\C/C=C\CCCC(=O)NCCCl.O [ACEA, Arachidonyl-2′-chloroethylamide hydrate]
- Cumulative 3-h food intake, agonist alone (mice [1]): no effect on food intake
- Effect on rectal temperature, agonist alone (mice [2]; ACEA 1 mg·kg−1, t = 30 min): hypothermic response

SMILES: Cc1c(C(=O)NN2CCCCC2)nn(-c2ccc(Cl)cc2Cl)c1-c1ccc(Cl)cc1 [Rimonabant, reference compound]
- Effect of the administration route on distribution in brain and plasma (Brain/plasma ratio (B/P); 10 mg·kg−1, i.p. vs oral): strongly affected
- Kp (Brain/plasma ratio (B/P); mouse, brain, intraperitoneal, 10 mg·kg−1, i.p. or oral, DMSO/Tween 80 aqueous solution, at maximal absorption time point): > 1
- Cumulative 3-h food intake, co-administration with ACEA (mice [1]; Rimonabant 10 mg·kg−1, JM-00266 20 mg·kg−1): strong hypophagia
- Effect on hypothermic response to ACEA (mice [2]; pre-treatment 20 min before ACEA 1 mg·kg−1, Rimonabant 10 mg·kg−1, JM-00266 20 mg·kg−1, t = 30 min): fully inhibited the hypothermic response
- Bioavailability compared with JM-00266, whatever the administration route [3]: far higher
- Tissue distribution (plasma, brain, liver, visceral adipose tissue) [4]: preferentially accumulated in the liver and the adipose tissue whereas brain concentration remained very low
- Open field: locomotor activity (total ambulatory distance) (mice [5]): did not significantly alter
- Open field: number of center entries (mice [5]): did not significantly alter
- Open field: time spent in the center (mice [5]): significantly decreased

SMILES: CCCCC/C=C\C/C=C\C/C=C\C/C=C\CCCC(=O)NCCO [anandamide, Arachidonylethanolamide, reference compound]
- Effect on gastro-intestinal transit, agonist alone (mice [6]): slowing down of gastro-intestinal transit
- Effect on rectal temperature, agonist alone (mice [2]; anandamide 10 mg·kg−1): decrease in rectal temperature

Reference: article PMC8949893, “Chemical Synthesis, Pharmacokinetic Properties and Biological Effects of JM-00266, a Putative Non-Brain Penetrant Cannabinoid Receptor 1 Inverse Agonist” (International Journal of Molecular Sciences, 2022)
